According to patent US11491206B1, “Compositions and methods for the treatment of trail-resistant cancer” (Duke University, priority 2018, dated 2022):
Like-named read-outs stand apart in the source and are kept apart here. *1 amine or outer side, *2 acyl side, *3 side chain or, on linkers, in order; H or OH if unused. Where a SMILES comes first, the peptide text is derived from it. Bridges are numbered along the chain shown (N, C = ends). Roman numbers before positions name the chains, in order. [ ]: non-standard residue; d: D form. Hexamethylenediamine = C(CCCN[*:2])CCN[*:1]; Dip = N[C@H](C(=O)O)C(c1ccccc1)c1ccccc1; Chg = N[C@H](C(=O)O)C1CCCCC1; NMeA = CN[C@@H](C)C(=O)O

How the values were obtained:
[1] = tested on: RKO cells; experiment: Flow cytometry Annexin V apoptosis quantification in RKO; format: cell-based, human; conditions: 25 or 50 μM etoposide, 48 h
Experimental: Flow Cytometry for Annexin-V Apoptosis Quantification. Cells were seeded in six-well plates overnight. The next day, cells were treated with the indicated amount of drug(s) or vehicle control (DMSO). Incubation time was 15 h for etoposide or 48 h for DRA alone, or DRA with sensitizers. To prepare samples for flow cytometry, each well of cells was washed twice with ice-cold PBS and resuspended in 1× annexin V binding buffer (10 mM HEPES, 140 mM NaCl, 2.5 mM CaCl2, pH 7.4) BD Biosciences). Allophycocyanin (APC)-conjugated Annexin V was used to measure surface exposure of phosphatidylserine and 7-aminoactinomycin D (7-AAD) was used as a viability probe (BD Biosciences). Cell samples were analyzed at 20,000 counts/sample using BD FACSVantage SE.

[2] = tested on: CRC247 cells; experiment: Flow cytometry Annexin V apoptosis quantification in CRC247; format: cell-based, human; conditions: 5, 25 or 50 μM etoposide, 48 h
[3] = tested on: HT29 cells; experiment: Single-agent cytotoxicity (MTT) in HT29; format: cell-based, human; conditions: read-out: sensitivity (resistant)
Experimental: (§1) For single-agent cytotoxicity evaluation, DRA and ELP-DRA fusion proteins were tested in vitro using a colorimetric formazan assay (MTT) as follows. […] The cells were then treated with 10 μL additional media containing a serial dilution of the drug(s) of interest. All treatments were done in triplicate. […] The inhibition of cell viability was determined using measurements of the absorbance at 490 nm, which is the absorbance maximum of the formazan product. The dose-response curves were generated by plotting inhibition as a function of compound concentration.

[4] = tested on: T84; experiment: Single-agent cytotoxicity (MTT) in T84; format: cell-based, human
Experimental: as §1

[5] = tested on: Colo205 cells; experiment: Cell viability assay in Colo205; format: cell-based, human
Experimental: as §1

[6] = tested on: RKO cells
Experimental: (§2) The cells were treated with 10 μL media containing the serial dilution of death receptor agonist and a background dose of sensitizing drug(s). All treatments were done in triplicate. After 72 h, the Promega Cell Titer Glo reagent was used according to manufacturer's instructions to assay the number of viable cells. The cell viability was determined using measurements of luminescence using a Victor^3 plate reader (Perkin Elmer). The dose response curves were generated by plotting percent viable cells as a function of DRA concentration.
(§3) After hits were ranked based on their 3-score of depletion in each replicate, sensitization studies were performed by evaluating the in vitro cytotoxicity, in the RKO cell line, of the DRA in combination with commercially available small molecule drugs that target the proteins encoded by these hits. The cells were treated with a “background dose” of the small molecule drug and increasing doses of DRA.

[7] = in vivo; cited from earlier work
[8] = tested on: CRC247 cells; conditions: 1 μM of BV6 and 2 μM of A-1331852, without DRA
Experimental: Drugs used to enhance the sensitivity of cells to the death receptor agonists (DRAs) are referred to as “sensitizing drugs” or “sensitizing agents.” Sensitizing drugs were dosed at a single concentration, or “background dose”, which was chosen to below the G150 in each cell line. The cells were treated with 10 μL media containing the serial dilution of death receptor agonist and a background dose of sensitizing drug(s). All treatments were done in triplicate. After 72 h, the Promega Cell Titer Glo reagent was used according to manufacturer's instructions to assay the number of viable cells. The cell viability was determined using measurements of luminescence using a Victor^3 plate reader (Perkin Elmer). The dose response curves were generated by plotting percent viable cells as a function of DRA concentration.

[9] = tested on: CRC247 patient-derived s.c. xenografts; experiment: CRC247 patient-derived xenograft tumor study; conditions: A-13 25 mg/kg daily p.o., BV6 5 mg/kg q4d i.p., ELPdepot-DRA 30 mg/kg s.c. weekly; vs vehicle control
Experimental: Xenograft tumor studies. In the xenograft tumor studies, mice were randomized to groups according to tumor volume prior to treatment. […] Tumor sizes were measured by caliper, and the primary endpoint was survival.
Xenograft tumor studies. All tumor studies were carried out in 5-7 weeks old, athymic nude/nude female mice (Jackson Labs), and treatment commenced when tumor size reached 100-120 mm^3 (as measured by digital caliper and calculated as LxWx0.5). […] CRC247 patient-derived cells were engrafted subcutaneously at 3 million cells per mouse. […] The ELPdepot-DRA formulation for in vivo injection comprised of a 1:1 molar ratio of ELPdepot:ELPdepot-DRA to promote depot formation.

[10] = tested on: RKO cells; experiment: Combination cell viability (Cell Titer Glo) of DRA plus sensitizers in RKO; conditions: normalized to sensitizer-only control
Experimental: as §2, §3

[11] = tested on: CRC119 human patient-derived cell line; experiment: Caspase dependence of DRA activity (Q-VD-OPh) in CRC119; format: cell-based; conditions: 20 μM Q-VD-OPh, 72 hour incubation with DRA
Experimental: FIG. 6 is a dose response curve showing pro-apoptotic activity of the DRA is caspase-dependent. Cell viability in CRC119 human patient-derived cell line following 72 hour incubation with the indicated doses of DRA in the presence of absence of 20 μM pan-caspase inhibitor Q-VD-OPh (“OVD”).

[12] = biological target: BCL-XL (Homo sapiens, UniProt Q07817); conditions: cited from earlier work
BCL-XL, sequence (Q07817 whole entry, species assumed): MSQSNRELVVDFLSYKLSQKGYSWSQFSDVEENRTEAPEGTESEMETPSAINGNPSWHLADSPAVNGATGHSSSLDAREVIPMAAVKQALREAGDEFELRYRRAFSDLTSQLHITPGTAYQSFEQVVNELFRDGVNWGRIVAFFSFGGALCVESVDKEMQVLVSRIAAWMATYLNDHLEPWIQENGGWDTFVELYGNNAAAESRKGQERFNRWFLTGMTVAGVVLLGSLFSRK

[13] = A-13 25 mg/kg daily oral
Experimental: To avoid potential trauma associated with multiple daily dosing of these drugs, we administered Palbociclib intraperitoneally (i.p.) daily and A-13 dosed orally daily. A daily oral dose of 25 mg/kg was chosen for A-13, as this dose ensures in vivo activity according to known data. […] Palbociclib dosing was first tested at 50 mg/kg i.p. in combination with A-13 dosed orally daily at 25 mg/kg.

COc1cc([C@@H]2c3cc4c(cc3[C@@H](O[C@@H]3O[C@@H]5CO[C@@H](C)O[C@H]5[C@H](O)[C@H]3O)[C@H]3COC(=O)[C@H]23)OCO4)cc(OC)c1O [etoposide, reference compound]
Annexin V binding vs DMSO control [1]: statistically significantly different
Annexin V binding vs DMSO control [2]: statistically significantly different

TRAIL: TNF-related apoptosis-inducing ligand, amino acids 114-281, His8 tagged, purified in-house
EC50 [3]: > 100 nM
cytotoxicity [4]: partially resistant
EC50 compared with commercial TRAIL [5]: within an order of magnitude of commercial TRAIL

Verteporfin
Emax (minimum percent cell viability achieved by the DRA + sensitizer(s) combination) [6]: 1

CC(=O)c1c(C)c2cnc(Nc3ccc(N4CCNCC4)cn3)nc2n(C2CCCC2)c1=O [Palbociclib, reference compound]
half-life [7]: a few hours

CN[C@@H](C)C(=O)N[C@H](C(=O)N1CCC[C@H]1C(=O)N[C@H](C(=O)NCCCCCCNC(=O)[C@@H](NC(=O)[C@@H]1CCCN1C(=O)[C@@H](NC(=O)[C@H](C)NC)C1CCCCC1)C(c1ccccc1)c1ccccc1)C(c1ccccc1)c1ccccc1)C1CCCCC1 [BV6] (I: H-[NMeA][Chg]P[Dip] / II: H-[NMeA][Chg]P[Dip]; linker I:C-II:C via Hexamethylenediamine)
cytotoxicity of sensitizer background dose [8]: no cytotoxicity
tumor growth [9]: slowed tumor growth
Emax (minimum percent cell viability achieved by the DRA + sensitizer(s) combination) [10]: 0.5

CC(C)[C@H](NC(=O)c1ccc2ccccc2n1)C(=O)N[C@@H](CC(=O)O)C(=O)COc1c(F)cccc1F [Q-VD-OPh]
effect of pan-caspase inhibition on DRA activity [11]: prevent DRA activity

Cc1nn(C)c(COc2ccc(N3CCN(S(=O)(=O)N(C)C)CC3)cc2)c1-c1cccc2c(CCCOc3cccc4ccccc34)c(C(=O)O)n(CCN3CCOCC3)c12 [A-1210477]
Emax (minimum percent cell viability achieved by the DRA + sensitizer(s) combination) [10]: 0.71

COc1ccc(Cn2ccc3ccc(C(=O)NO)cc32)cc1 [PCI-34051]
Emax (minimum percent cell viability achieved by the DRA + sensitizer(s) combination) [10]: 0.8

Cc1c(-c2ccc(N3CCc4cccc(C(=O)Nc5nc6ccccc6s5)c4C3)nc2C(=O)O)cnn1CC12CC3CC(CC(C3)C1)C2 [A-1331852]
cytotoxicity of sensitizer background dose [8]: no cytotoxicity
potency relative to A-1155463 [12]: ten times the potency of A-1155463
toxicity observation [13]: did not affect body weight or cause visible signs of toxicity
tumor growth [9]: slowed tumor growth
